Assay results taken from the supplement of paper PMC13380429.

Columns and labels:
Conditions in all cases: 72 h
U2OS [1] = assay: drug sensitivity score (DSS) for viability; higher = more toxic; extreme values may be limits of the assay
Vero E6 [2] = assay: as above
Caco-2 [3] = assay: as above
HepG2 [4] = assay: as above
U2OS [5] = assay: relative viability EC50 (midpoint between 100% and the lowest measured viability); higher = less toxic
Vero E6 [6] = assay: as above
Caco-2 [7] = assay: as above
HepG2 [8] = assay: as above
U2OS [9] = assay: cell viability relative to DMSO; higher = less toxic
Vero E6 [10] = assay: as above
Caco-2 [11] = assay: as above
HepG2 [12] = assay: as above
Calu-3 [13] = assay: drug sensitivity score (DSS) for viability; higher = more toxic; extreme values may be limits of the assay
Calu-3 [14] = assay: relative viability EC50 (midpoint between 100% and the lowest measured viability); higher = less toxic
Calu-3 [15] = assay: cell viability relative to DMSO; higher = less toxic

Row | Compound | drug sensitivity score (U2OS [1]) | drug sensitivity score (Vero E6 [2]) | drug sensitivity score (Caco-2 [3]) | drug sensitivity score (HepG2 [4]) | relative viability EC50 (U2OS [5]) | relative viability EC50 (Vero E6 [6]) | relative viability EC50 (Caco-2 [7]) | relative viability EC50 (HepG2 [8]) | cell viability (U2OS [9]; 1 nM) | cell viability (U2OS [9]; 10 nM) | cell viability (U2OS [9]; 100 nM) | cell viability (U2OS [9]; 1000 nM) | cell viability (U2OS [9]; 10000 nM) | cell viability (Vero E6 [10]; 1 nM) | cell viability (Vero E6 [10]; 10 nM) | cell viability (Vero E6 [10]; 100 nM) | cell viability (Vero E6 [10]; 1000 nM) | cell viability (Vero E6 [10]; 10000 nM) | cell viability (Caco-2 [11]; 1 nM) | cell viability (Caco-2 [11]; 10 nM) | cell viability (Caco-2 [11]; 100 nM) | cell viability (Caco-2 [11]; 1000 nM) | cell viability (Caco-2 [11]; 10000 nM) | cell viability (HepG2 [12]; 1 nM) | cell viability (HepG2 [12]; 10 nM) | cell viability (HepG2 [12]; 100 nM) | cell viability (HepG2 [12]; 1000 nM) | cell viability (HepG2 [12]; 10000 nM) | drug sensitivity score (Calu-3 [13]) | relative viability EC50 (Calu-3 [14]) | cell viability (Calu-3 [15]; 1 nM) | cell viability (Calu-3 [15]; 10 nM) | cell viability (Calu-3 [15]; 100 nM) | cell viability (Calu-3 [15]; 1000 nM) | cell viability (Calu-3 [15]; 10000 nM)
1 | CC(C)c1ccccc1S(=O)(=O)c1cc(N)c2ncccc2c1[N+](=O)[O-] | 0 | 0 | 0 | 0 | > 10 µM | > 10 µM | > 10 µM | > 10 µM | 99.7% | 102% | 96.3% | 98.5% | 93.7% | 98% | 103% | 107% | 102% | 100% | 98.7% | 102% | 99.1% | 97.3% | 89.8% | 100% | 95.8% | 100% | 89.9% | 110% |  |  |  |  |  |  | 
2 | CCn1cc(-c2ccnc3[nH]c(-c4cccc(CN(C)C)c4)cc23)c(-c2ccc(NC(=O)N(C)C)cc2)n1 |  | 3.8 | 3.4 | 8.1 |  |  |  | 1.19 µM |  |  |  |  |  | 103% | 104% | 98.5% | 82% | 63.5% | 96.3% | 95.7% | 98% | 93.1% | 56.2% | 106% | 105% | 77.8% | 72.3% | 20.1% | 0.6 | > 10 µM | 97.8% | 110% | 81.9% | 97.7% | 81.9%
3 | COc1cc2ncn(-c3cc(OCc4ccccc4C(F)(F)F)c(C(N)=O)s3)c2cc1OC | 0.1 | 5.9 | 4.9 | 9.9 | > 10 µM |  |  | 0.743 µM | 102% | 97.8% | 102% | 94.4% | 89.4% | 104% | 96% | 98.8% | 69.1% | 57.5% | 102% | 95.5% | 102% | 73.4% | 62.3% | 95.6% | 108% | 105% | 50% | 26.5% | 0.5 | > 10 µM | 95.9% | 101% | 95.4% | 90% | 86.1%
4 | C[C@@H](N)c1ccc(C(=O)Nc2ccnc3[nH]ccc23)cc1 | 1.2 | 0.2 | 0 | 2.8 |  | > 10 µM | > 10 µM |  | 99.3% | 96.8% | 99% | 98.2% | 75% | 99.1% | 98.5% | 96.6% | 93% | 86.5% | 95.8% | 101% | 110% | 105% | 91.6% | 93.7% | 94.4% | 105% | 89.8% | 68.4% |  |  |  |  |  |  | 
5 | Cc1c(Cn2c(C)nc3c(C(=O)O)cc(N4CCOCC4)cc32)cccc1C(F)(F)F | 0 | 3.6 | 0.5 |  | > 10 µM |  | > 10 µM |  | 95.7% | 104% | 96.2% | 99% | 91.3% | 97.2% | 101% | 93.1% | 84.4% | 58.9% | 102% | 97.3% | 91.2% | 93.1% | 84.9% |  |  |  |  |  | 0.2 | > 10 µM | 110% | 101% | 97% | 94.4% | 86%
6 | O=C1NCCc2[nH]c(-c3ccncc3)cc21 | 5.9 | 7.2 | 4.2 | 13.6 | 2.77 µM | 1.9 µM | 2.48 µM | 0.499 µM | 95.2% | 104% | 93.6% | 95.3% | 5.8% | 98% | 98.2% | 98.1% | 85.7% | 13.5% | 96.1% | 93.6% | 94.2% | 94.9% | 38.5% | 91.4% | 102% | 92.4% | 33.1% | 9.5% | 4.6 |  | 94% | 94.6% | 94.6% | 79.5% | 53.6%
7 | c1ccc(C[C@H](c2ccccc2)N2CCCCC2)cc1 (racemic) [1-(1,2-diphenylethyl)piperidine-(+/-)] | 0 | 0 | 0 | 0.1 | > 10 µM | > 10 µM | > 10 µM | > 10 µM | 104% | 93.8% | 98.7% | 98.9% | 105% | 92.6% | 97.7% | 92.2% | 97.1% | 102% | 91.2% | 93.9% | 101% | 100% | 103% | 92.9% | 103% | 96.5% | 100% | 86.8% |  |  |  |  |  |  | 
8 | O=[N+]([O-])c1ccc(O)c([N+](=O)[O-])c1 [2,4-dinitrophenol] | 0 | 0 | 1.8 | 0 | > 10 µM | > 10 µM |  | > 10 µM | 96.2% | 102% | 106% | 105% | 97% | 94% | 103% | 100% | 92.9% | 99.1% | 89.3% | 96.8% | 82.7% | 98.8% | 73.4% | 100% | 89.5% | 110% | 106% | 103% |  |  |  |  |  |  | 
9 | NCC(O)(CS(=O)(=O)O)c1ccc(Cl)cc1 (stereo not drawn) [2-hydroxysaclofen] | 0 | 0 | 0 | 0.3 | > 10 µM | > 10 µM | > 10 µM | > 10 µM | 104% | 94.8% | 94.9% | 103% | 97.4% | 100% | 98.1% | 102% | 97.2% | 97.5% | 98.4% | 96.2% | 91.4% | 98.6% | 96.3% | 101% | 98.5% | 89.4% | 90.3% | 98.8% |  |  |  |  |  |  | 
10 | CCn1c(O)nnc1-c1ccc(Cl)cc1 [5-(4chlorophenyl)-4-ethyl-2,4-dihydro-3H-1,2,4-triazol-3-one] | 1 | 0.4 | 1.6 | 0 | > 10 µM | > 10 µM | > 10 µM | > 10 µM | 100% | 103% | 99.8% | 98.1% | 78.6% | 97.9% | 102% | 102% | 106% | 79.6% | 116% | 112% | 112% | 91.6% | 79.1% | 112% | 111% | 102% | 98.3% | 94.7% |  |  |  |  |  |  | 
11 | CC(=O)O[C@]1(C(C)=O)CC[C@H]2[C@@H]3C=CC4=CC(=O)CC[C@]4(C)[C@H]3CC[C@@]21C [6,7-dehydro-17-acetoxy-progesterone] | 0 | 0 | 0 | 0 | > 10 µM | > 10 µM | > 10 µM | > 10 µM | 96.4% | 99.6% | 97.3% | 101% | 94.8% | 106% | 99.5% | 104% | 98.1% | 98.2% | 95.6% | 97.5% | 93.7% | 92.8% | 92.6% | 102% | 103% | 105% | 105% | 98% |  |  |  |  |  |  | 
12 | COc1ccccc1N1CCN(CCCCNC(=O)c2ccc3ccccc3c2)CC1 [BP-897] | 0 | 0 |  | 0 |  |  |  |  |  |  |  |  |  |  |  |  |  |  |  |  |  |  |  |  |  |  |  |  | 0.8 |  |  |  |  |  | 
13 | Cc1ccc2c(c1)Cc1c(C(=O)NC3CCCCC3)nn(-c3ccc(Cl)cc3Cl)c1-2 [GP2a] | 0 | 0 | 0 | 0 | > 10 µM | > 10 µM | > 10 µM | > 10 µM | 95.8% | 99.4% | 97.4% | 105% | 102% | 99.5% | 96.2% | 99.8% | 100% | 100% | 91.8% | 89.6% | 97.3% | 95.4% | 91.7% | 100% | 102% | 99% | 88.9% | 99.7% |  |  |  |  |  |  | 
14 | Nc1ncnc2c1c(-c1ccc(Cl)cc1)nn2-c1cccc(-c2cnnn2Cc2cccc(-c3ccccc3)c2)c1 [KB-SRC-4] | 0 | 0 | 0 | 0 | > 10 µM | > 10 µM | > 10 µM | > 10 µM | 95.2% | 96.5% | 95.5% | 101% | 103% | 97.7% | 99.1% | 95.9% | 93.7% | 105% | 99.1% | 94.7% | 99.7% | 93.6% | 101% | 107% | 98.4% | 99.1% | 99.5% | 111% |  |  |  |  |  |  | 
15 | CC(C)NC(=O)COc1cccc(-c2nc(Nc3ccc4[nH]ncc4c3)c3ccccc3n2)c1 [KD025] | 2.7 | 1.5 | 1.6 | 0.8 | 3.29 µM |  |  | > 10 µM | 97.2% | 103% | 97.5% | 101% | 46.5% | 105% | 99.1% | 104% | 97.3% | 72.8% | 104% | 100% | 102% | 97.8% | 70.5% | 98.7% | 96.8% | 107% | 86.8% | 94.5% | 0 | > 10 µM | 95.6% | 108% | 89.4% | 105% | 108%
16 | COc1cc(C(=O)N2CCC(N3CCN(C)CC3)CC2)ccc1Nc1ncc2c(n1)N(C)c1ccccc1C(=O)N2C [LRRK2-IN-1] | 4.2 | 5.7 | 2.7 | 3.5 |  | 2.64 µM |  | 3.42 µM | 101% | 95.9% | 98.5% | 90.6% | 50.1% | 99.5% | 100% | 94% | 94.3% | 13.5% | 96% | 87.2% | 98.8% | 91.7% | 67.8% | 99.4% | 99.4% | 98.8% | 103% | 31.6% | 4.4 |  | 102% | 89.2% | 102% | 88.1% | 52.2%
